Counter-ions that a name gives are not always drawn. Like-named read-outs stand apart in the source and are kept apart here.
Tests used:
ETA [1] = target: T1, ETA (Oryctolagus cuniculus, UniProt A5A8K3); experiment: VERA-A: antagonism of ET-1 stimulated vasoconstriction in the rabbit femoral artery (ETA); type: cell-based; conditions: ET-1, rabbit femoral artery; read-out: VERA-A pA2 (converted)
T1 sequence (A5A8K3 21-427): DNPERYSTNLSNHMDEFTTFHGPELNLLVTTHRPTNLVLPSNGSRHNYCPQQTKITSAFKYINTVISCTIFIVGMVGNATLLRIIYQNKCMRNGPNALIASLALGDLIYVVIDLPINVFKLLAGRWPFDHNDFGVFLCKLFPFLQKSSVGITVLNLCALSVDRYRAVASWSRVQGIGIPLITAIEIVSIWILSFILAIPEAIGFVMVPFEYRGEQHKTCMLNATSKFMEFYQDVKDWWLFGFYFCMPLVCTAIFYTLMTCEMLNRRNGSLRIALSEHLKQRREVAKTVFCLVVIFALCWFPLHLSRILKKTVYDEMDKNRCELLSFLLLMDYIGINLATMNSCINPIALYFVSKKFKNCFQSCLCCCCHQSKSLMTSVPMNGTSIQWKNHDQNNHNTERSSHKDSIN
Description: Male New Zealand rabbits were killed by cervical dislocation and exsanguination. Femoral and pulmonary arteries were isolated, cleaned of connective tissue, and cut into 4-mm rings. The endothelium was denuded by placing the rings over hypodermic tubing (32 gauge for femoral rings and 28 gauge for pulmonary rings, Small Parts, Inc, Miami, Fla.) and gently rolling them. […] Resting tension was adjusted to 3.0 g for femoral and 4.0 g pulmonary arteries; the rings were left for 90 minutes to equilibrate.

ETA [2] = target: T1, ETA; conditions: ERBA-A IC50, [125I]-ET-1, rabbit renal artery vascular smooth muscle cells
human ETB receptor = target: T2, human ETB receptor (Homo sapiens, UniProt P24530); experiment: ERBA-B: [125I]-ET-1 binding, recombinant human ETB receptor expressed in CHO-K1 cells; conditions: human cloned ETB receptor, read-out: ERBA-B IC50, human cloned receptor data
T2 construct: expressed in transfected cells; host or cells: CHO-K1 cells, pRc-CMW (so in the source) expression vector, electroporation; membranes used
T2 sequence (P24530 27-442): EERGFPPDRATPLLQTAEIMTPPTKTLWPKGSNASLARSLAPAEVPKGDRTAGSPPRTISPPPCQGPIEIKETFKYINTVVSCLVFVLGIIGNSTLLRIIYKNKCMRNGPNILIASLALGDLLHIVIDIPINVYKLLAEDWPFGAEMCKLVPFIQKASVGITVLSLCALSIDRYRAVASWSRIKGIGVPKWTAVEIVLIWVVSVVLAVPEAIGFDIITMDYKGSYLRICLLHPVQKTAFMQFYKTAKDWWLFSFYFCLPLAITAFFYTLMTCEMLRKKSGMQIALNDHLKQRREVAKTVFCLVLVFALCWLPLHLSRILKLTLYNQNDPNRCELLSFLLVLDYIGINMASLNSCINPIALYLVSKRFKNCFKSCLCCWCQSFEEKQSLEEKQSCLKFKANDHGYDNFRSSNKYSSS

ETB = target: T3, ETB (Rattus norvegicus, UniProt P21451)
T3 sequence (P21451 27-442): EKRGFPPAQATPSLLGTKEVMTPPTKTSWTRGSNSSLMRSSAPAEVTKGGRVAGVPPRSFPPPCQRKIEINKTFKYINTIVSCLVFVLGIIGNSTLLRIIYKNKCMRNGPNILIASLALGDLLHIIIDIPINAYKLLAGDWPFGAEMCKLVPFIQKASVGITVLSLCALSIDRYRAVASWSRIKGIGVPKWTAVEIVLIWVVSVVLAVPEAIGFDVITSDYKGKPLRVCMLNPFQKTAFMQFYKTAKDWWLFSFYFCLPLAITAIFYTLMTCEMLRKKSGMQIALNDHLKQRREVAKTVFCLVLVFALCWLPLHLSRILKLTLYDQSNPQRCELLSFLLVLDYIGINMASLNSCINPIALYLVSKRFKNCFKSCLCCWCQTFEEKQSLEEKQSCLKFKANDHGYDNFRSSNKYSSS

ETA [3] = target: T1, ETA

Structure (SMILES)	Kb (ETA [1])	IC50 (ETA [2])	IC50 (human ETB receptor)	IC50 (ETB)	IC50 (ETA [3])
COc1ccc(C(=O)/C(Cc2ccccc2OC)=C(\C(=O)O)c2ccc3c(c2)OCO3)cc1	251 nM	–	–	–	–
COc1ccc(C2(O)OC(=O)C(c3ccc4c(c3)OCO4)=C2Cc2ccc(NC(C)=O)cc2)cc1 (stereo not shown) [Example 80, N-{4-[4-Benzo[1,3]dioxol-5-yl-2-hydroxy-2-(4-methoxyphenyl)-5-oxo-2,5-dihydro-furan-3-ylmethyl]-phenyl}-acetamide]	63.1 nM	1.4 nM	880 nM	–	–
COc1ccc(C2(O)OC(=O)C(c3ccc4c(c3)OCO4)=C2Cc2ccc(OC(C)C)cc2)cc1 (stereo not shown) [Example 84, 3-Benzo[1,3]dioxol-5-yl-5-hydroxy-4-(isopropoxybenzyl)-5-(4-methoxyphenyl)-5H-furan-2-one]	158 nM	3.3 nM	1400 nM	–	–
COc1ccc(C2(O)OC(=O)C(c3ccc4c(c3)OCO4)=C2Cc2ccc(OC)c(Cl)c2)cc1 (stereo not shown) [Example 92, 3-Benzo[1,3]dioxol-5-yl-4-(3-chloro-4-methoxybenzyl)-5-hydroxy-5-(4-methoxyphenyl)-5H-furan-2-one]	251 nM	4 nM	1400 nM	–	–
CCCCOc1ccc(CC2=C(c3ccc4c(c3)OCO4)C(=O)OC2(O)c2ccc(OC)cc2)cc1 (stereo not shown) [Example 93, 3-Benzo[1,3]dioxol-5-yl-4-(4-butoxybenzyl)-5-hydroxy-5-(4-methoxyphenyl)-5H -furan-2-one]	1000 nM	5.2 nM	220 nM	–	–
COc1ccc(CC2=C(c3cc(OC)cc(OC)c3)C(=O)OC2(O)c2ccc(OC)cc2)cc1 (stereo not shown) [Example 131, 3-(3,5-Dimethoxyphenyl)-5-hydroxy-4-(4-methoxybenzyl)-5-(4-methoxyphenyl)-5H-furan-2-one]	501 nM	15 nM	1350 nM	–	–
C=CCOc1cc(CC2=C(c3cc(OC)cc(OC)c3)C(=O)OC2(O)c2ccc(OC)cc2)ccc1OC (stereo not shown) [Example 135, 4-(3-Allyloxy-4-methoxybenzyl)-3-(3,5-dimethoxyphenyl)-5-hydroxy-5-(4-methoxyphenyl)-5H-furan-2-one]	126 nM	9 nM	–	330 nM	–
COc1ccc(C2(O)OC(=O)C(c3ccc4c(c3)OCO4)=C2Cc2cccnc2)cc1 (stereo not shown) [Example 160, 3-Benzo[1,3]dioxol-5-yl-5-hydroxy-5-(4-methoxyphenyl)-4-pyridin-3-ylmethyl-5H-furan-2-one]	–	350 nM	–	–	55 nM
C=CCOc1cc(CC2=C(c3ccc4c(c3)OCO4)C(=O)OC2(O)c2ccc(OC)cc2)ccc1OC (stereo not shown) [Example 163, 4-(3-Allyloxy-4-methoxybenzyl)-3-benzo[1,3]dioxol-5-yl-5-hydroxy-5-(4-methoxyphenyl)-5H-furan-2-one]	126 nM	20 nM	880 nM	–	–
COc1ccc(C2(O)OC(=O)C(c3ccc4c(c3)OCO4)=C2Cc2ccc(SC)cc2)cc1 (stereo not shown) [Example 236, 3-Benzo[1,3]dioxol-5-yl-5-hydroxy-5-(4-methoxyphenyl)-4-(4-methylsulfanylbenzyl)-5H-furan-2-one]	316 nM	230 nM	–	–	–
COc1ccc(C2(O)OC(=O)C(c3ccc4c(c3)OCO4)=C2Cc2ccc(S(C)(=O)=O)cc2)cc1 (stereo not shown) [Example 237, 3-Benzo[1,3]dioxol-5-yl-5-hydroxy-4-(4-methanesulfonylbenzyl)-5-(4-methoxyphenyl)-5H-furan-2-one]	631 nM	11 nM	> 2500 nM	–	–
COc1ccc(C2(O)OC(=O)C(c3ccc4c(c3)OCO4)=C2Cc2ccccc2)c(OC)c1 (stereo not shown) [Example 241, 3-Benzo[1,3]dioxol-5-yl-4-benzyl-5-(2,4-dimethoxyphenyl)-5-hydroxy-5H-furan-2-one]	631 nM	35 nM	–	–	–
COc1ccc(C2(O)OC(=O)C(c3ccc4c(c3)OCO4)=C2Cc2ccc(OC)c(C)c2C)cc1 (stereo not shown) [Example 254, 3-Benzo[1,3]dioxol-5-yl-5-hydroxy-4-(4-methoxy-2,3-dimethylbenzyl)-5-(4-methoxyphenyl)-5H-furan-2-one]	200 nM	17 nM	2900 nM	–	–
COc1ccc(C2(O)OC(=O)C(c3cc(OC)c4c(c3)OCO4)=C2Cc2ccccc2)cc1 (stereo not shown) [Example 301, 4-Benzyl-5-hydroxy-3-(7-methoxy-benzo[1,3]dioxol-5-yl)-5(4-methoxy-phenyl)-5H-furan-2-one]	100 nM	5.6 nM	660 nM	–	–
COc1ccc(C(=O)/C(Cc2ccccc2)=C(\C(=O)O)c2ccc3c(c2)OCO3)cc1 [Example 351, Sodium 2-benzo[1,3]dioxol-5-yl-3-benzyl-4-(4-methoxyphenyl)-4-oxobut-2-enoate]	631 nM	16 nM	> 250 nM	–	–
COc1ccc(C(=O)/C(Cc2ccc(OC(C)C)cc2)=C(\C(=O)O)c2ccc3c(c2)OCO3)cc1 [Example 352, 1,3-Benzodioxol-5-acetic acid, α-[2-(4-methoxyphenyl)-1-[[4-(1-methylethoxy)phenyl]methyl]-2-oxoethylene]-, (Z)-, choline salt]	63.1 nM	5 nM	1250 nM	–	–
COc1ccc(C2(O)OC(=O)C(c3cc(OC)c4c(c3)OCO4)=C2Cc2cc(OC)c(OC)c(OC)c2)cc1 (stereo not shown) [Example 356, 5-Hydroxy-3-(7-methoxy-benzo[1,3]dioxol-5-yl)-5-(4-methoxy-phenyl)-4-(3,4,5-trimethoxy-benzyl)-5H-furan-2-one]	20 nM	0.25 nM	340 nM	–	–
COc1ccc(C2(O)OC(=O)C(c3cc(OC)c4c(c3)OCO4)=C2Cc2ccccc2)cc1C (stereo not shown) [Example 360, 4-Benzyl-5-hydroxy-3-(7-methoxy-benzo[1,3]dioxol-5-yl)-5-(4-methoxy-3-methyl-phenyl)-5H-furan-2-one]	100 nM	9.9 nM	1350 nM	–	–
COc1ccc(C2(O)OC(=O)C(c3cc(OC)c4c(c3)OCO4)=C2Cc2cc(OC)c(OC)c(OC)c2)cc1C (stereo not shown) [Example 361, 5-Hydroxy-3-(7-methoxy-benzo[1,3]dioxol-5-yl)-5-(4-methoxy-3-methyl-phenyl) -4-(3,4,5-trimethoxy-benzyl)-5H-furan-2-one]	39.8 nM	2 nM	220 nM	–	–
COc1cc(OC)cc(C2=C(Cc3cc(OC)c(OC)c(OC)c3)C(O)(c3ccc(OC)c(C)c3)OC2=O)c1 (stereo not shown) [Example 382, 3-(3,5-Dimethoxy-phenyl)-5-hydroxy-5-(4-methoxy-3-methyl-phenyl)-4-(3,4,5-trimethoxy-benzyl)-5H-furan-2-one]	158 nM	0.9 nM	> 250 nM	–	–
COc1cc(OC)cc(/C(C(=O)O)=C(\Cc2ccc(NC(C)=O)cc2)C(=O)c2ccc(OC)c(C)c2)c1 [Example 386, Potassium 3-(4-Acetylamino-benzyl)-2-(3,5-dimethoxyphenyl)-4-(4-methoxy-3-methyl-phenyl)-4-oxo-but-2-enoate]	126 nM	5 nM	2100 nM	–	–
COC(=O)c1cccc(C/C(C(=O)c2ccc(OC)cc2)=C(/C(=O)O)c2ccc3c(c2)OCO3)c1 [Example 405, 1,3-Benzodioxol-5-acetic acid, α-[1-[[3-(methoxycarbonyl)phenyl]methyl]-2-(4-methoxyphenyl)-2-oxoethylene]-, monopotassium salt]	251 nM	7.4 nM	2700 nM	–	–

From US5691373A, “Nonpeptide endothelin antagonists I” (Warner-Lambert Company, priority 1995, dated 1997)
